Structures can show the parent of a compound that is named as a salt. Where two headings read alike, the source gives them in different places.
What was measured:
Gastric Secretion = assay: Gastric Secretion, betazole stimulated, dogs with total gastric fistulas; assay type: in vivo, Female dogs; conditions: gastric fistula dogs
Text: This is a secondary test used to follow-up compounds which have shown gastric antisecretory activity in the four-hour pylorus ligated rat (Example 42). Female dogs were surgically prepared with total gastric fistulas and allowed to recover.

parietal cells = assay: Isolated Parietal Cell Assay, 14C-aminopyrine accumulation in histamine stimulated parietal cells; assay type: cell-based, rabbit; conditions: Oryctolagus cuniculus, 20 min, read-out: IC50, inhibition of 14C-AP accumulation in the histamine stimulated parietal cell
Description: The isolated parietal cell assay was conducted using the procedures of Batzri, S., et al., Biochemica et Biophysica Acta 508, 328 (1978) and Soll, A. H., Am. J. Physiol. 238, G366 (1980). Basically, parietal cells were isolated from the fundic mucosa of rabbit stomachs by a four-stage collagenase digestion process. The supernatant fraction from the last two stages of this process contain the individual parietal cells. This cell suspension was centrifuged and reconstituted in a modified Hank's buffer to contain 2-3×10^6 cells/ml. […] The accumulation was stimulated by histamine and was blocked by H2 antagonists. The cells were incubated with 0.5×10^6 cpm ^14 C-AP, with various concentrations of histamine, 1×10^-5 M isobutylmethylxanthine, and the test compound added in a 20 μl volume of buffer or DMSO. The flasks were incubated in a shaking water bath at 37° C. for 20 minutes. Two aliquots were then taken from each flask and cell pellets were collected by centrifugation. The pellets were solubilized with Protosol (New England Nuclear) and radioactivity determined by liquid scintillation spectrometry. Data is presented as the IC50, the concentration of compound required to inhibit ^14 C-AP accumulation in the histamine stimulated parietal cell by 50%.

Lesions = assay: Cytoprotection, ethanol (necrotizing agent) induced lesions in rats; assay type: in vivo, male Charles River Sprague Dawley derived rats; conditions: oral, 50% EtOH one hour later
Description: The cytoprotective activity of the compounds was tested using a modification of the method of Robert, A., et al., Gastroenterology 77, 433 (1979). Basically, male Charles River Sprague Dawley derived rats weighing between 140 and 220 g were fasted overnight, but allowed water ad libitum. They were deprived of water during the experiment, however. The rats were weighed and pretreated orally with the test compound in a dose volume of 1 ml/kg. One hour later, the necrotizing agent was administered orally, usually 50% EtOH, in a dose volume of 1 ml/animal. After an additional hour, the rats were sacrificed with CO2, the stomachs removed, inflated with distilled water, opened along the greater curvature and laid out on a flat surface. The presence of mucosal bleeding and incidence of lesions were noted, and after wiping off the mucosa the presence of submucosal bleeding and incidence of lesions were also noted.

acid output = assay: Gastric Secretion, inhibition of acid output in pylorus ligated rats; assay type: in vivo, male Charles River Sprague Dawley derived rats; conditions: Rattus norvegicus, 4 h, intraduodenal, four hours
Description: (§1) The inhibitory activity of the compounds on acid output was tested using pylorus ligation in a modification of the procedure of Shay, H., et al., Gastroenterology 26, 906 (1954). Basically, male Charles River Sprague Dawley derived rats weighing 150-300 grams were deprived of food but not water for 18-24 hours prior to use. Water was withheld during the experiment, however. The rats were weighed, anesthetized with ether and the pylorus ligated according to the method of Shay et al., supra. Treatment or vehicle control was then administered intraduodenally (i.d.). Rats were housed two/cage and sacrificed with CO2 four hours after ligation. The stomachs were removed, rinsed, and contents emptied into a graduated centrifuge tube. The tubes were centrifuged, the volume of gastric juice recorded, and any samples obviously contaminated by feces, food or blood were eliminated. A 1 ml aliquot of gastric juice was titrated with 0.1N NaOH to a pH of 7.0-7.4. The volume of gastric juice secreted, the acid concentration, and the product of the volume times the concentration, i.e., the total amount of acid secreted, were measured.

Pepsin = assay: In Vivo Pepsin Assay, radioenzymatic, gastric juice of pylorus ligated rat
Description: as §1
Pepsin activity was measured by a radioenzymatic assay. An aliquot of a 1:1000 dilution of rat gastric juice was incubated with the substrate solution (containing methyl-^14 C-methylated methemoglobin and nonradioactive methemoglobin in 10 mM sodium citrate buffer, pH 3.0) for a period of ten minutes at 37° C. After this time, trichloroacetic acid was added to stop the reaction and to precipitate the unreacted substrate. After removal of the precipitate by centrifugation, an aliquot of the supernatant fraction is quantitated for radioactivity by liquid scintillation spectrometry. Rat gastric juice samples were obtained after drug administration in the pylorus ligated rat (Example 42). Data is presented as the percent inhibition of pepsin activity in drug treated gastric samples compared to enzyme activity observed for control gastric juice samples. […]

[1] = rabbit parietal cells, 37° C., 20 minutes, 1×10^-5 M isobutylmethylxanthine

FC(F)(F)c1cccc(C23CNCC(O2)c2ccccc23)c1 (stereo not shown) [Example 2, 1,5-Epoxy-1-[(3-trifluoromethyl)phenyl]-1,2,4,5-tetrahydro-3-benzazepin oxalate]
% Inhibition of Gastric Secretion (Gastric Secretion; 2 mg/kg (ig)): 53% | % Inhibition of Gastric Secretion (Gastric Secretion; 40 mg/kg (route not given)): 75% | IC50 (parietal cells): 3.5 µM | % Inhibition of Lesions, Mucosa (Lesions; 25 mg/kg): 56% | % Inhibition of Lesions, Submucosa (Lesions; 25 mg/kg): 56% | inhibition in vivo at 25 mg/kg (acid output): 71%

FC(F)(F)c1cccc(C23CN(CCCN4CCOCC4)CC(O2)c2ccccc23)c1 (stereo not shown) [Example 3, 1,5-Epoxy-3-[N-(3-morpholinopropyl)-1-[(3-trifluoromethyl)phenyl]-1,2,4,5-tetrahydro-3-benzazepin dioxalate]
inhibition in vivo at 25 mg/kg (acid output): 48%

FC(F)(F)c1cccc(C23CN(CCCOc4cccc(CN5CCCCC5)c4)CC(O2)c2ccccc23)c1 (stereo not shown) [Example 4, 3-[3-[[3-(1-Piperidinyl)methyl]phenoxy]propyl]-1,5-epoxy-1-(3-trifluoromethyl)phenyl-1,2,4,5-tetrahydro-3-benzazepin dioxalate monohydrate]
% Inhibition of Gastric Secretion (Gastric Secretion; 7.3 mg/kg (iv)): 85% | % Inhibition of Gastric Secretion (Gastric Secretion; 20 mg/kg (ig)): 48% | % Inhibition of Pepsin Activity (Pepsin; 40 mg/kg): 52% | IC50 (parietal cells; [1]): 4.5 µM | % Inhibition of Lesions, Mucosa (Lesions; 10 mg/kg): 70% | % Inhibition of Lesions, Submucosa (Lesions; 10 mg/kg): 80% | % Inhibition of Lesions, Mucosa (Lesions; 20 mg/kg): 88% | % Inhibition of Lesions, Submucosa (Lesions; 20 mg/kg): 100% | inhibition in vivo at 40 mg/kg (acid output): 46%

CN(C)Cc1ccc(CSCCN2CC3OC(c4cccc(C(F)(F)F)c4)(C2)c2ccccc23)o1 (stereo not shown) [Example 5, 3-[2-[[[5-(Dimethylamino)methyl-2-furanyl]methylthio]ethyl]-1,5-epoxy-1-[3-trifluoromethyl)phenyl-1,2,4,5-tetrahydro-3-benzazepin dioxalate]
% Inhibition of Pepsin Activity (Pepsin; 20 mg/kg): 28-43% | IC50 (parietal cells; [1]): 1 to 1.3 µM | % Inhibition of Lesions, Mucosa (Lesions; 10 mg/kg): 10% | % Inhibition of Lesions, Submucosa (Lesions; 10 mg/kg): 30% | inhibition in vivo at 20 mg/kg (acid output): 46%

c1ccc(C23CNCC(O2)c2ccccc23)cc1 (stereo not shown) [Example 7, 1,5-Epoxy-1-phenyl-1,2,4,5-tetrahydro-3-benzazepin]
inhibition in vivo at 50 mg/kg (acid output): 68%

c1ccc(C23CN(CCCOc4cccc(CN5CCCCC5)c4)CC(O2)c2ccccc23)cc1 (stereo not shown) [Example 11, 3-[3-[[3-(1-Piperidinyl)methyl]methyl]phenoxy]propyl]-1,5-epoxy-1-phenyl-1,2,4,5-tetrahydro-3-benzazepin dioxalate hemihydrate]
% Inhibition of Pepsin Activity (Pepsin; 40 mg/kg): 30% | IC50 (parietal cells; [1]): 3.5 µM | % Inhibition of Lesions, Mucosa (Lesions; 40 mg/kg): 80% | % Inhibition of Lesions, Submucosa (Lesions; 40 mg/kg): 100% | inhibition in vivo at 40 mg/kg (acid output): 39%

CN(C)Cc1ccc(CSCCN2CC3OC(c4ccccc4)(C2)c2ccccc23)o1 (stereo not shown) [Example 12, 3-[2-[[[5-(Dimethylamino)methyl-2-furanyl]methylthio]ethyl]-1,5-epoxy-1-phenyl-1,2,4,5-tetrahydro-3-benzazepin dioxalate hemihydrate]
IC50 (parietal cells; [1]): 0.25 to 0.37 µM | % Inhibition of Lesions, Mucosa (Lesions; 10 mg/kg): 20% | % Inhibition of Lesions, Submucosa (Lesions; 10 mg/kg): 11%

C=CCN1CC2OC(C1)c1cc(Cl)ccc12 (stereo not shown) [Example 13, 3-Allyl-7-chloro-1,5-epoxy-1,2,4,5-tetrahydro-3-benzazepin oxalate.1/4H2 O]
inhibition in vivo at 50 mg/kg (acid output): 33%

Clc1ccc2c(c1)C1CNCC2O1 (stereo not shown) [Example 14, 7-Chloro-1,5-epoxy-1,2,4,5-tetrahydro-3-benzazepin oxalate.1/4H2 O]
inhibition in vivo at 50 mg/kg (acid output): 40%

c1ccc(CN2CC3OC(C2)c2ccccc23)cc1 [Example 18, 3-Benzyl-1,5-epoxy-1,2,4,5-tetrahydro-3-benzazepin oxalate]
inhibition in vivo at 50 mg/kg (acid output): 23%

c1ccc2c(c1)C1CN(CCCN3CCOCC3)CC2O1 [Example 22, 1,5-Epoxy-3-[N-(3-morpholinopropyl)]-1,2,4,5-tetrahydro-3-benzazepin dioxalate]
inhibition in vivo at 50 mg/kg (acid output): 33%

c1ccc2c(c1)C1CNCC2(C2OCCO2)O1 (stereo not shown) [Example 30, 1-(1,3-Dioxolan-2-yl)-1,5-epoxy-1,2,4,5-tetrahydro-3-benzazepin]
inhibition in vivo at 50 mg/kg (acid output): 23%

COc1cc2c(cc1OC)C1CN(CCSCc3ccc(CN(C)C)o3)CC2O1 [Example 36, 3-[2-[[[5-(Dimethylamino)methyl-2-furanyl]methylthio]ethyl]-1,5-epoxy-7,8-dimethoxy-1,2,4,5-tetrahydro-3-benzazepin dioxalate monohydrate]
IC50 (parietal cells; [1]): 30 µM | inhibition in vivo at 20 mg/kg (acid output): 26%

Source: patent publication US4855426A, “Process of preparing 1,5-epoxy-2,3,4,5-tetrahydro-1H-3-benzazepins” (Ortho Pharmaceutical Corporation, priority 1988, dated 1989)
